The results in this text go back to patent publication US4162307A, “Method for anaesthesia by use of a pentapeptide” (priority 1977, dated 1979).

Where a name gives a salt, the structure may show the parent alone.

Test [1] has as its system citric acid aerosol-induced coughs. Description: Antitussive testing, citric acid aerosol. Type of test: in vivo, guinea-pigs. The protocol: J. Pharmacol, 39, (1970) 225.
(C) For antitussive testing, guinea-pigs are subjected to an aerosol containing 20% citric acid, 30 minutes after administration of compound (orally or subcutaneously). The number of coughs during a five minute exposure are counted and meaned for six animals per treatment. The method is that described by Boura, A. L. A., Green, A. F. and Saunders, I. A. Br. J. Pharmac., May 1970, Vol. 39, No. 1, page 225.
(§1) From the data obtained the respective ED50 figures were calculated (i.e. the dose required to elicit the appropriate effect in 50% of the animals). N.T.: not tested.

Test [2] deals with castor oil-induced diarrhoea. Description: Antidiarrhoeal activity in the rat (castor oil). Type of test: in vivo. The protocol: (B) Antidiarrhoeal activity in the rat. In this procedure rats were straved for 24 hours, the peptide then administered either subcutaneously or orally followed after 15 minutes by 1 ml castor oil per rat given orally.
as §1

For test [3], the system named is righting, pinnal and corneal reflexes. Description: Anaesthetic effects following intracerebroventricular injection in mice (loss of righting, pinnal and corneal reflexes). Type of test: in vivo. As to conditions: mouse, loss of all three reflexes.
For the next test, the system named is mouse hot plate. Description: Analgesia in mice in the hot plate test. Type of test: in vivo. The procedure:
(A) Analgesia in mice in the hot plate test (modification of the method of Eddy, N. B. et al., J. Pharm. Exp. Therap. (1953) 107, 385, the peptide being administered by intracerebroventricular injection).
as §1
In general terms: Thermal pain tests record how soon the animal reacts.

Test [4] concerns righting, pinnal and corneal reflexes. Description: Anaesthetic effects tested intravenously. Particulars: loss of all three reflexes. Type of test: in vivo, mice. The protocol: (D) Compounds are tested for anaesthetic effects following intracerebroventricular injection in mice. The animals are observed for loss of righting reflex (failure to roll over within 10 seconds of being turned on their backs), loss of pinnal reflex (failure to flick the ear in response to a light touch at the base of the pinna) and loss of corneal reflex (failure to blink when the cornea is touched lightly). Loss of all three reflexes constitutes anaesthesia. In addition, any other effects are noted. […] Interesting compounds are then tested intravenously in the same manner.
as §1

Test [5] has the same test system. Description: Anaesthesia in laboratory animals (abolition of reflexes), standard pharmacological procedures. Type of test: in vivo, rats and mice.
In test [6] the test system is isolated guinea-pig ileum. Description: Electrically-induced contractions of the isolated guinea-pig ileum. Particulars: 0.1 Hz; 0.4 ms; 30-40 V. The source says: (Each intestinal segment was impaled by the anode and suspended with a 2-3 g load. Stimulus parameters: frequency: 0.1 Hz; duration: 0.4 ms; voltage (supramaximal) 30-40 V; the contractions were transduced isotonically).

The subject of test [7] is isolated mouse vas deferens. Description: Neurally evoked contractions of the isolated mouse vas deferens.

`CCNC(=O)[C@@H](CC(C)C)NC(=O)[C@H](Cc1ccccc1)NC(=O)CNC(=O)[C@@H](C)NC(=O)[C@@H](N)Cc1ccc(O)cc1` [H.Tyr.D-Ala.Gly.Phe.D-Leu.NHEt hydrochloride]: the ED50 antitussive in test [1] (guinea-pig, 20% citric acid aerosol 30 minutes after administration, route not printed in table (orally or subcutaneously)) is recorded as 2.0 mg/kg. For the same compound, the ED50 anti-diarrhoea in test [2] (rat, s.c., castor oil 1 ml orally 15 minutes after peptide) was found to be 10 mg/kg. Also, in test [3], the ED50 anaesthesia i.c.v. stood at 2.8 μg/mouse. Further, the “ED50 mouse hot plate, analgesia” value in the test with mouse hot plate (i.c.v., dose eliciting the effect in 50% of the animals) is 0.03 μg/mouse. In test [4], this compound came in with an ED50 anaesthesia i.v. of 20 mg/kg.

In the case of `CN1CC[C@]23c4c5ccc(O)c4O[C@H]2[C@@H](O)C=C[C@H]3[C@H]1C5` [morphine, reference compound], the “Effect on the righting reflex, morphine by acute bolus injection” value in test [5] (mice, acute bolus injection in up to lethal doses) is given as “does not abolish the righting reflex”.

Take `CCNC(=O)[C@@H](CC(C)C)NC(=O)[C@H](Cc1ccccc1)NC(=O)CNC(=O)[C@@H](C)NC(=O)[C@@H](N)Cc1ccc(O)cc1` [peptide of formula (I), h.tyr.D-Ala.Gly.Phe.D-Leu.NHEt]: the “Antitussive activity” value in test [1] (guinea-pigs) is “exhibits antitussive activity”. Besides, the “Antidiarrhoeal activity” value in test [2] (rats, castor oil-induced diarrhoea) is recorded as “effective in reducing castor oil-induced diarrhoea”. In addition, the “Reversal of reflex-abolishing effects by naloxone” value in test [5] (effects (i), (ii) and (iii), naloxone administered) is given as “may be reversed by administration of the known narcotic antagonist naloxone”. For the same compound, in test [5] (laboratory animals), the “Effect on the corneal reflex” value is recorded as “Abolition of the corneal reflex”, the “Effect on the pinnal reflex” value is on record as “Abolition of the pinnal reflex” and the “Effect on the righting reflex” value is reported as “Abolition of the righting reflex”. Further, the “Induction and maintenance of anaesthesia” value in test [5] (rats and mice, parenteral, e.g. intravenous or intracerebroventricular injection) was “both to induce and to maintain anaesthesia”. Also, in the test on mouse hot plate (mice, hot plate, naloxone), the “Naloxone sensitivity of analgesic activity” value is “abolished by naloxone”. In the test with mouse hot plate (mice, intracerebroventricular injection), the “Analgesic activity, hot plate” value was “exhibits analgesic activity”. For the same compound, the “Effect on electrically-induced contractions of isolated guinea-pig ileum” value in test [6] is on record as “Reduction of electrically-induced contractions”. Further, the “Naloxone sensitivity of vas deferens inhibition” value in test [7] (naloxone) was “abolished by the known narcotic antagonist naloxone”. The “Effect on neurally evoked contractions of isolated mouse vas deferens” value in test [7] (pulses at 0.1 Hz) was “Inhibition of neurally evoked contractions”.
